Measured values: patent US6689811B2, “Method of using caffeic acid phenethyl ester and analogs thereof as radiation sensitizers” (Wake Forest University, priority 2001, dated 2004)

Legend:
[1] = tested on: Akt phosphorylation (Akt-Pser473); assay: Akt phosphorylation immunoblot in RKO cells treated with CAPE; format: cell-based
Experimental: RKO cells were treated with low serum (LS) (0.1%) for 12 h, or low serum for 12 h followed by replacement of media with 10% serum (LS+S), in the absence (EtOH) or presence of CAPE. Two different exposures (light, dark) of the immunoblot using the anti-phosphoAkt specific antibody are shown.
(§1) 35(9): p. 790; Giri, D. and M. Ittmann, Hum Pathol, 1999. 30(4): p. 419-24; Davies, M. A., et al., Cancer Res, 1999. 59(11): p. 2551-6). Since PTEN is mutated in PC-3 cells, Akt phosphorylation levels are elevated compared to normal prostatic cells, and therefore PC-3 cells are a good model to study the regulation of Akt by CAPE and propolis.
Since Akt phosphorylation levels reflect a balance between active phosphorylation (mainly by PI-3 kinase) and dephosphorylation (by a yet unidentified phosphatase), the decrease in Akt phosphorylation could be an activation of a phosphatase rather than inhibition of a kinase. […] Thus, we performed CAPE treatments in the presence of high (10%) and low (0.1%) serum levels.

[2] = tested on: HT-29 cells; assay: Clonogenic survival assay with CAPE and ionizing radiation, HT-29 cells; format: cell-based
Experimental: (§2) FIGS. 2A-B are graphs illustrating that CAPE sensitizes colorectal carcinoma cells RKO (A) and HT-29 cells (B) to treatments with IR. RKO (A) and HT-29 (B) cells were treated with CAPE (5 μg/ml) for the indicated times, irradiated and plated for clonogenic survival assays. CAPE treatment alone induced 10-20% reduction in clonogenic survival. Results are normalized to account for this reduction. We have also tested the ability of CAPE to sensitize cells to the cytotoxic effects of ionizing radiation. […] The Dose-enhancement ratio (DER) values at survival fraction (SF) 0.1 for pretreatment with CAPE for 24 h were 1.81 for RKO cells and a 1.68 for HT-29 cells. The radiosensitizing effect of CAPE was even more pronounced in vivo.

[3] = tested on: Akt phosphorylation (Akt-Pser473); assay: Akt phosphorylation immunoblot in PC-3 cells treated with CAPE; format: cell-based
From the text: as §1

[4] = tested on: HT-29 xenograft tumors; assay: HT-29 tumor xenografts on the flanks of nude mice, CAPE with or without IR; format: in vivo
Experimental: FIG. 3 is a photograph showing representative animals where CAPE radiosensitizes HT-29 xenograft tumors to IR. HT-29 cells were grown as tumor xenografts on the flanks of nude mice. When the tumors reached approximately 80 mm^3, one group of mice was treated with 0.5 ml of ethanol (EtOH) (0.1%) while the other group was treated with a single injection of CAPE (100 μg/kg). Twenty-four hours later, the tumors on the left flanks were given a single dose of IR (5 Gy). The animals were returned to their cages and tumor measurements were taken every 7 days for the following 4 weeks. The animal on the left was treated with ethanol (EtOH) (the carrier for CAPE), while the animal on the right was treated with 50 mg/kg CAPE. The tumors on the left side of the animal (right side of the picture) was treated with ionizing radiation (IR) (5Gy). Pictures were taken 4 weeks following IR. FIG. 4 is graphical representation of results from all tumors. Control (N=7), CAPE (N=5), IR (N=6) and CAPE +IR (N=4). Error bars represent ±S.E.M. The different number of tumors measured reflects the failure of some of the tumors to grow during the first week prior to treatment. FIG. 5 is a bar graph illustrating the number of days required for a tumor to triple in volume. […] FIG. 4 illustrates that tumors treated with both CAPE and IR were reduced in size by approximately 90% 4 weeks after treatment.

[5] = tested on: RKO cells; assay: Clonogenic survival assay with CAPE and ionizing radiation, RKO cells; format: cell-based
Experimental: as §2

[6] = tested on: colorectal carcinoma cells; assay: Survival fraction of colorectal carcinoma cells, oxaliplatin versus CAPE and oxaliplatin; format: cell-based; details: regimen of CAPE and oxaliplatin compared to oxaliplatin alone (FIG. 6)
From the text: FIG. 6 is a graph depicting the survival fraction of colorectal carcinoma cells when the cells are given a regimen of oxaliplatin as compared to a regimen of CAPE and oxaliplatin. As stated above, CAPE may be combined with other cancer therapies. One such therapy includes the use of oxaliplatin. Oxaliplatin is a chemotherapy drug, and also an antineoplastic agent, that is generally used in late-stage clinical development for colorectal cancer. Oxaliplatin is a platinum chemotherapy drug, similar to cisplatin and carboplatin. At the center of the drug molecule is an atom of platinum. Oxaliplatin is generally a clear liquid that is given through a drip into a vein (intravenous infusion). The infusion usually takes about 2 hours. Oxaliplatin can be given every 2 weeks or every 3 weeks as a course of treatment.

[7] = immunoblot with anti-Akt antibody (FIG. 1A)
[8] = increasing doses of CAPE, immunoblot (FIG. 1A)
[9] = pretreatment with CAPE for 24 h (5 μg/ml), then IR

## O=C(/C=C/c1ccc(O)c(O)c1)OCCc1ccccc1 [CAPE, caffeic acid phenethyl ester]
[1]; [7]
  levels of Akt (anti-Akt antibody): remain unchanged
[1]; [8]
  levels of Akt phosphorylation (Akt-Pser473): reduces the levels of Akt phosphorylation
[1]; low serum 12 h then 10% serum, in presence of CAPE (FIG. 1B)
  rephosphorylation of Akt when serum was added back: did not inhibit rephosphorylation of Akt
[1]; low serum (0.1%) for 12 h plus CAPE (FIG. 1B)
  Akt phosphorylation with CAPE in low serum: undetectable levels
[2]; CAPE 5 μg/ml, no IR
  reduction in clonogenic survival by CAPE treatment alone: 10-20%
[2]; pretreatment with CAPE for 12 h or 24 h (FIG. 2B)
  sensitization to IR treatments: significant sensitization
[2]; [9]
  Dose-enhancement ratio (DER) at survival fraction (SF) 0.1: 1.68
[3]; [7]
  levels of Akt (anti-Akt antibody): remain unchanged
[3]; [8]
  levels of Akt phosphorylation (Akt-Pser473): reduces the levels of Akt phosphorylation
[4]; CAPE combined with IR (FIG. 5)
  number of days required for tumor to triple in volume, CAPE plus IR: failed to triple in volume
[4]; single dose (50 mg/kg) CAPE, no IR, HT-29 xenografts in nude mice
  effect on tumor growth, CAPE alone: minimal effect on tumor growth
[4]; single injection of CAPE, IR 5 Gy 24 h later, 4 weeks after treatment (FIG. 4)
  reduction in tumor size, CAPE and IR: approximately 90%
[5]; CAPE 5 μg/ml, no IR
  reduction in clonogenic survival by CAPE treatment alone: 10-20%
[5]; pretreatment with CAPE for 12 h or 24 h (FIG. 2A)
  sensitization to IR treatments: significant sensitization
[5]; [9]
  Dose-enhancement ratio (DER) at survival fraction (SF) 0.1: 1.81
[6]
  survival fraction of cancerous cells, CAPE plus oxaliplatin: decrease in the survival fraction
